The test system of data set [1] is Asexual parasites of P. falciparum strain 3D7. The data set is described as follows: In vitro drug activity on asexual parasites (SYBR Green assay). The class given is cell-based. To be noted: Plasmodium falciparum, P. falciparum 3D7 asexual stage, 72 h, read-out: Asexual EC50. The procedure: Cell culture. Asexual parasites of P. falciparum strain 3D7 were cultured as described previously [Trager W, et al., Journal of Parasitology 2005, 91: 484-486]. Stage III-V gametocytes were selected and enriched with 3-day treatment with 50 mM N-acetylglucosamine (NAG) and the following Percoll density gradient centrifugation after gametocyte production [Tanaka T Q, et al., Molecular and Biochemical Parasitology, 2011, 177: 160-163]. Gametocytes of HB3 and Dd2 strains were produced and then set up for assay in a similar process. HepG2 cells (ATCC, cat. no. 77400) were cultured in 175-cm^2 tissue culture flasks with 30 ml growth medium at 37° C. in a 5% CO2 humidified atmosphere. Growth medium was made with Dulbecco's Modified Eagle Medium with 10% fetal bovine serum (FBS). Growth medium was replaced every other day and cells were passed at 75% confluence.
Asexual parasites of P. falciparum strain 3D7 were cultured as described previously (Trager, W. et al., J. Parasitol. 2005, 91(3): 484-486). Drug activity on asexual stage parasites was tested using a SYBR Green assay as described previously (Eastman, R. T. et al., Antimicrob. Agents Chemother. 2013, 57(1): 425-435; Smilkstein, M. et al., Antimicrob. Agents Chemother. 2004, 48(5): 1803-1806). Briefly, parasites were diluted to 0.5% parasitemia in complete culture medium with 2% hematocrit and drugs diluted in DMSO (<0.5%) and were loaded into a 96-well plate (200 μl/well). No drug and RBC alone wells were included as positive and background controls, respectively, and each testing condition was examined in duplicated. After 72 h incubation under the standard culture condition and a freeze-thaw lysis step at −80° C. and room temperature, 100 μl/well of lysis buffer containing SYBR Green I was added to the parasite culture and incubated for 30 min at room temperature. The fluorescence of each well was measured at 520 nm following excitation at 490 nm using a FLUOstar Optima™ microplate reader (BMG Labtech).
Compounds were screened against gametocytes and asexual parasites as described in Examples 1 and 2.

The nature of data set [2]: Microsomal stability (rat). The class given is in vitro ADME. To be noted: rat microsomes.
Another data set is described as follows: Solubility pH 7.4. The class given is physicochemical. The conditions noted are these: aqueous buffer.
[3] abbreviates: Table 1, read-out: Microsomal Stability (rat) T1/2.

≈ marks a conversion by molar mass, not a printed value. Where two headings read alike, the source gives them in different places. Where only a bound is given, the exact number is not on record here.

As a reminder, the EC50 is the concentration that produces a half-maximal response. The solubility is the concentration that dissolves in the medium under given conditions. Higher therefore signals a readily soluble substance. Take `Cc1cccc(C)c1-n1c(=N)n(C)c2cnc3ccc(-c4ccc(Cl)cc4)cc3c21` [Compound 99, 8-(4-chlorophenyl)-1-(2,6-dimethylphenyl)-3-methyl-1,3-dihydro-2H-imidazo[4,5-c]quinolin-2-imine]: in data set [1] (Table 1), the EC50 worked out at 3180 nM. In data set [2] (setting [3]), the half-life is over 30 min. In “Solubility pH 7.4” (Table 1), the solubility was over 41 µg/mL. Turning to `Cc1ccc(C#N)cc1-n1c(=N)n(CCO)c2cnc3ccc(-c4ccc(Cl)cc4)cc3c21` [Compound 95, 3-(8-(4-chlorophenyl)-3-(2-hydroxyethyl)-2-imino-2,3-dihydro-1H-imidazo[4,5-c]quinolin-1-yl)-4-methylbenzonitrile], in data set [1] (Table 1), the EC50 was 2580 nM. The half-life in data set [2] (setting [3]) is over 30 min. In the data set “Solubility pH 7.4” (Table 1), this molecule showed a solubility of 27.4 µg/mL (≈ 60.4 µM).

For the molecule `Cc1ccccc1-n1c(=N)n(C)c2cnc3ccc(-c4ccc(Cl)cc4)cc3c21` [Compound 81, 8-(4-chlorophenyl)-3-methyl-1-(o-tolyl)-1,3-dihydro-2H-imidazo[4,5-c]quinolin-2-imine], in data set [1] (Table 1), the EC50 is 1640 nM. Further, the half-life in data set [2] (setting [3]) was over 30 min. In addition, in the data set “Solubility pH 7.4” (Table 1), the solubility was over 39 µg/mL. The matching figures for `Cn1c(=N)n(-c2cncc(C(N)=O)c2)c2c3cc(-c4ccc(Cl)cc4)ccc3ncc21` [Compound 46, 5-(8-(4-chlorophenyl)-2-imino-3-methyl-2,3-dihydro-1H-imidazo[4,5-c]quinolin-1-yl)nicotinamide]: 1760 nM, over 30 min and 19.9 µg/mL (≈ 46.4 µM). On to `Cn1c(=N)n(-c2nccc(C(F)(F)F)n2)c2c3cc(-c4cccc(F)c4)ccc3ncc21`, for which, in data set [1] (Table 3), the EC50 came out at 202 nM. This molecule also had a solubility in the data set “Solubility pH 7.4” (Table 3) of under 1 µg/mL. The matching figures for `COc1ccc(-c2ccc3ncc4c(c3c2)n(-c2cncnc2C)c(=N)n4C)cc1F`: 229 nM and over 61 µg/mL. As to `Cc1cc(N2CCCC2)c(C#N)cc1-n1c(=N)n(C)c2cnc3ccc(-c4ccc(Cl)cc4)cc3c21` [Compound 111, 5-(8-(4-chlorophenyl)-2-imino-3-methyl-2,3-dihydro-1H-imidazo[4,5-c]quinolin-1-yl)-4-methyl-2-(pyrrolidin-1-yl)benzonitrile], in data set [1] (Table 1), the EC50 was found to be 801 nM. In the case of `COc1ccc(-c2ccc3ncc4c(c3c2)n(-c2cncnc2C)c(=N)n4C)cc1OC`, the EC50 in data set [1] (Table 3) is 25.8 nM. In addition, the half-life in data set [2] (Table 3, read-out: Microsomal Stability (rat) T1/2) was over 30 min. With `Cc1cc(N2CCOC(C)C2)c(C#N)cc1-n1c(=N)n(C)c2cnc3ccc(-c4ccc(Cl)cc4)cc3c21` (stereo not shown) [Compound 119, 5-(8-(4-chlorophenyl)-2-imino-3-methyl-2,3-dihydro-1H-imidazo[4,5-c]quinolin-1-yl)-4-methyl-2-(2-methylmorpholino)benzonitrile], the EC50 in data set [1] (Table 1) came to 352 nM. Still for that read-out and setting: as for `Cc1cc(N2CCNC(=O)C2)c(C#N)cc1-n1c(=N)n(C)c2cnc3ccc(-c4ccc(Cl)cc4)cc3c21` [Compound 133, 5-(8-(4-chlorophenyl)-2-imino-3-methyl-2,3-dihydro-1H-imidazo[4,5-c]quinolin-1-yl)-4-methyl-2-(3-oxopiperazin-1-yl)benzonitrile], the figure is 6.26 nM; as for `Cc1cc(N2C[C@@H]3CCCN[C@@H]3C2)c(C#N)cc1-n1c(=N)n(C)c2cnc3ccc(-c4ccc(Cl)cc4)cc3c21` [Compound 120, 5-(8-(4-chlorophenyl)-2-imino-3-methyl-2,3-dihydro-1H-imidazo[4,5-c]quinolin-1-yl)-4-methyl-2-((4aS,7aS)-octahydro-6H-pyrrolo[3,4-b]pyridin-6-yl)benzonitrile], 1470 nM. Consider `Cn1/c(=N\c2cncnc2)n(-c2cncnc2)c2c3cc(-c4cccc(F)c4)ccc3ncc21`, for which the EC50 in data set [1] (Table 3) worked out at 193 nM. For the molecule `Cn1c(=N)n(-c2cccc(CC#N)c2)c2c3cc(-c4ccc(Cl)cc4)ccc3ncc21` [Compound 73, 2-(3-(8-(4-chlorophenyl)-2-imino-3-methyl-2,3-dihydro-1H-imidazo[4,5-c]quinolin-1-yl)phenyl)acetonitrile], in data set [1] (Table 1), the EC50 came out at 118 nM. Consider `Cc1cc(N2CCC(NS(C)(=O)=O)CC2)c(C#N)cc1-n1c(=N)n(C)c2cnc3ccc(-c4ccc(Cl)cc4)cc3c21` [Compound 131, N-(1-(4-(8-(4-chlorophenyl)-2-imino-3-methyl-2,3-dihydro-H-imidazo[4,5-c]quinolin-1-yl)-2-cyano-5-methylphenyl)piperidin-4-yl)methanesulfonamide], for which, in data set [1] (Table 1), the EC50 was determined as 16.3 nM. `COc1cc(-c2ccc3ncc4c(c3c2)n(-c2cncnc2C)c(=N)n4C)ccc1F`: the half-maximal effective concentration (EC50) in data set [1] (Table 3) is 52.5 nM. For the same molecule, in the data set “Solubility pH 7.4” (Table 3), the solubility was under 1 µg/mL. For the molecule `COc1ccnc(-n2c(=N)n(C)c3cnc4ccc(-c5ccc(Cl)cc5)cc4c32)n1`, the EC50 in data set [1] (Table 3) stood at 2110 nM. In the data set “Solubility pH 7.4” (Table 3), this molecule yielded a solubility of under 1 µg/mL.

For `CC(=O)N1CCC(N2CCC(n3c(=N)n(C)c4cnc5ccc(-c6ccc(Cl)cc6)cc5c43)CC2)CC1` [Compound 127, 1-(4-(8-(4-chlorophenyl)-2-imino-3-methyl-2,3-dihydro-1H-imidazo[4,5-c]quinolin-1-yl)-[1,4′-bipiperidin]-1′-yl)ethan-1-one], the EC50 in data set [1] (Table 1) was 1500 nM. Consider `COc1cc(-c2ccc3ncc4c(c3c2)n(-c2cncnc2C)c(=N)n4C)ccc1Cl`, for which the EC50 in data set [1] (Table 3) was 50.8 nM. In “Solubility pH 7.4” (Table 3), this molecule displayed a solubility of 1.3 µg/mL (≈ 3.02 µM). Taken in the same sequence, the figures for `Cn1c(=N)n(-c2nccc(C(F)(F)F)n2)c2c3cc(-c4ccc(Cl)cc4)ccc3ncc21` were 450 nM and under 1 µg/mL. The matching figures for `COc1ccnc(-n2c(=N)n(C)c3cnc4ccc(-c5cccc(F)c5)cc4c32)n1`: 1310 nM and 6.5 µg/mL (≈ 16.2 µM). As for `Cn1c(=N)n(-c2cncnc2)c2c3cc(-c4ccc(Cl)c(C#N)c4)ccc3ncc21`, the EC50 in data set [1] (Table 3) was determined as 136 nM. In the case of `Cn1c(=N)n(-c2ccnc(C#N)c2)c2c3cc(-c4ccc(Cl)cc4)ccc3ncc21` [Compound 90, 4-(8-(4-chlorophenyl)-2-imino-3-methyl-2,3-dihydro-1H-imidazo[4,5-c]quinolin-1-yl)picolinonitrile], in data set [1] (Table 1), the EC50 is 224 nM. For `Cn1nccc1-c1ccc2ncc3c(c2c1)n(-c1cncnc1)c(=N)n3C`, in data set [1] (Table 3), the EC50 is 570 nM. The molecule further had a solubility in “Solubility pH 7.4” (Table 3) of 36.3 µg/mL (≈ 102 µM). In the case of `CCC(=O)N1CCC(N2CCC(n3c(=N)n(C)c4cnc5ccc(-c6ccc(Cl)cc6)cc5c43)CC2)CC1` [Compound 128, 1-(4-(8-(4-chlorophenyl)-2-imino-3-methyl-2,3-dihydro-1H-imidazo[4,5-c]quinolin-1-yl)-[1,4′-bipiperidin]-1′-yl)propan-1-one], in data set [1] (Table 1), the EC50 was found to be 627 nM. In the case of `Cc1cc(F)c(C#N)cc1-n1c(=N)n(C)c2cnc3ccc(-c4ccc(Cl)cc4)cc3c21` [Compound 134, 5-(8-(4-chlorophenyl)-2-imino-3-methyl-2,3-dihydro-1H-imidazo[4,5-c]quinolin-1-yl)-2-fluoro-4-methylbenzonitrile], in data set [1] (Table 1), the EC50 turned out to be 74.3 nM. Same read-out and setting: as for `COC(=O)/N=c1\n(C)c2cnc3ccc(-c4cccc(F)c4)cc3c2n1-c1cc(C#N)c(N2CCOCC2)cc1C` [Compound 148, Methyl (E)-(1-(5-cyano-2-methyl-4-morpholinophenyl)-8-(3-fluorophenyl)-3-methyl-1,3-dihydro-2H-imidazo[4,5-c]quinolin-2-ylidene)carbamate], the figure is 236 nM.

The values above are taken from patent US20210188843A1, “QUINOLINE COMPOUNDS AND THEIR PREPARATION AND USE AS ANTIMALARIAL AGENTS” (The United States of America,as represented by the …, priority 2018, published 2021).
